Values after ≈ are worked out from the molar mass of the structure shown. Values joined by “and” are separate entries in the source; they are usually repeats but may differ in a detail not shown here. Equal entries are not always repeated.
What was measured:
Test in all cases: ≥ marks a high value that may be exact or a test limit, other limits are often not marked, values filed in µg/mL are converted to µM
Saccharomyces cerevisiae = test system: Saccharomyces cerevisiae
Fusarium culmorum = test system: Fusarium culmorum
Staphylococcus aureus = test system: Staphylococcus aureus
Trichoderma viride = test system: Trichoderma viride
Aspergillus fumigatus = test system: Aspergillus fumigatus
[1] = test system: Trichophyton mentagrophytes
Fusarium oxysporum = test system: Fusarium oxysporum
[2] = test system: Acinetobacter calcoaceticus
Bacillus pumilus = test system: Bacillus pumilus
Pseudomonas aeruginosa = test system: Pseudomonas aeruginosa
[3] = test system: Escherichia coli ATCC 25922
Bacillus cereus = test system: Bacillus cereus
[4] = test system: Candida albicans ATCC 2002
Shigella dysenteriae = test system: Shigella dysenteriae
[5] = test system: Staphylococcus aureus ATCC 2592
[6] = test system: Candida glabrata ATCC 2001
[7] = test system: Bacillus subtilis CCT 2576
[8] = test system: Pseudomonas aeruginosa ATCC 27853
[9] = test system: Staphylococcus epidermidis ATCC 12228
[10] = test system: Staphylococcus aureus ATCC 29213
Escherichia coli ML-35 = test system: Escherichia coli ML-35
Bacillus subtilis = test system: Bacillus subtilis
[11] = test system: Klebsiella pneumoniae ATCC 700603
[12] = test system: Cronobacter sakazakii ATCC 29544
[13] = test system: Staphylococcus epidermidis
Candida krusei ATCC 6258 = test system: Candida krusei ATCC 6258
Salmonella typhimurium = test system: Salmonella typhimurium
Klebsiella pneumoniae = test system: Klebsiella pneumoniae
Escherichia coli = test system: Escherichia coli
[14] = test system: Candida albicans ATCC 14053
[15] = test system: Bacillus subtilis ATCC 23857
[16] = test system: Pseudomonas aeruginosa ATCC 15422
[17] = test system: Staphylococcus aureus ATCC 6538
[18] = test system: Candida tropicalis ATCC 750
[19] = test system: Candida parapsilosis ATCC 22019
[20] = test system: Pseudomonas aeruginosa PAO1
Escherichia coli O157:H7 = test system: Escherichia coli O157:H7
[21] = test system: Staphylococcus aureus 1056
[22] = test system: Staphylococcus aureus R147
[23] = test system: Salmonella enterica serovar Typhimurium MS4252S
[24] = test system: Pseudomonas aeruginosa Z61
[25] = test system: Salmonella enterica subsp. enterica serovar Typhimurium ATCC 14028s
Escherichia coli UB1005 = test system: Escherichia coli UB1005
Candida albicans 3153A = test system: Candida albicans 3153A
Escherichia coli O111 = test system: Escherichia coli O111
Escherichia coli DC2 = test system: Escherichia coli DC2
Candida albicans 105 = test system: Candida albicans 105
[26] = test system: Staphylococcus aureus NCTC 4163
[27] = test system: Enterococcus faecalis ATCC 29212

Compound: CC[C@H](C)[C@@H]1NC(=O)[C@@H]2CSSC[C@@H](C(=O)N[C@@H](CCCN=C(N)N)C(=O)N[C@@H](CCCN=C(N)N)C(=O)O)NC(=O)[C@H]([C@@H](C)O)NC(=O)[C@@H]3CSSC[C@H](NC(=O)[C@H](C)NC(=O)[C@H](C)NC(=O)[C@H](Cc4cnc[nH]4)NC(=O)CNC(=O)[C@H](C(C)C)NC(=O)CNC(=O)[C@H](Cc4ccccc4)NC(=O)[C@H](C)NC(=O)[C@H](CO)NC(=O)[C@H](CC(C)C)NC(=O)[C@H](CC(C)C)NC(=O)[C@H](CC(=O)O)NC(=O)[C@@H](NC(=O)[C@@H](NC(=O)[C@H](C)N)[C@@H](C)O)CSSC[C@H](NC(=O)[C@H](Cc4ccc(O)cc4)NC(=O)CNC(=O)CNC(=O)[C@H](CCCN=C(N)N)NC(=O)[C@H](Cc4ccc(O)cc4)NC(=O)CNC(=O)[C@H](Cc4cnc[nH]4)NC(=O)CNC1=O)C(=O)N[C@@H](CC(N)=O)C(=O)N[C@@H](CO)C(=O)N[C@@H](CCCCN)C(=O)N[C@@H](C)C(=O)N[C@@H](C(C)C)C(=O)N3)C(=O)N[C@@H](C)C(=O)N[C@@H](C)C(=O)N[C@@H](Cc1cnc[nH]1)C(=O)N2 [ATCDLLSAFGVGHAACAAHCIGHGYRGGYCNSKAVCTCRR]
- MIC (Saccharomyces cerevisiae): ≥ 35.4 µM
- MIC (Fusarium culmorum): 2.21 µM (≈ 9.04 µg/mL)
- MIC (Staphylococcus aureus): 1.1 µM (≈ 4.52 µg/mL)
- MIC (Trichoderma viride): 4.42 µM (≈ 18.1 µg/mL)
- MIC (Aspergillus fumigatus): 17.7 µM (≈ 72.4 µg/mL)
- MIC [1]: ≥ 35.4 µM
- MIC (Fusarium oxysporum): 4.42 µM (≈ 18.1 µg/mL)

Compound: CC[C@H](C)[C@H](NC(=O)[C@@H]1CCCN1C(=O)[C@H](Cc1ccccc1)NC(=O)[C@@H](N)Cc1ccccc1)C(=O)N[C@H](C(=O)NCC(=O)N[C@@H](CCCCN)C(=O)N[C@@H](CC(C)C)C(=O)N[C@@H](CC(C)C)C(=O)N[C@@H](Cc1ccccc1)C(=O)NCC(=O)N[C@@H](CC(C)C)C(=O)N[C@@H](CO)C(=O)NCC(=O)N[C@@H](CC(C)C)C(=O)N[C@@H](CC(C)C)C(N)=O)C(C)C [FFPIVGKLLFGLSGLL]
- MIC [2]: 8.72 µM (≈ 15 µg/mL)
- MIC (Bacillus pumilus): 2.91 µM (≈ 5 µg/mL)
- MIC (Pseudomonas aeruginosa): 2.91 µM (≈ 5 µg/mL)
- MIC [3]: 0.726 µM (≈ 1.25 µg/mL)
- MIC (Bacillus cereus): 8.72 µM (≈ 15 µg/mL)
- MIC [4]: 0.726 µM (≈ 1.25 µg/mL)
- MIC (Shigella dysenteriae): 2.91 µM (≈ 5 µg/mL)
- MIC [5]: 0.726 µM (≈ 1.25 µg/mL)

Compound: CC[C@H](C)[C@H](N)C(=O)N[C@@H](CC(=O)O)C(=O)N[C@@H](Cc1c[nH]c2ccccc12)C(=O)N[C@@H](CCCCN)C(=O)N[C@@H](CCCCN)C(=O)N[C@@H](CC(C)C)C(=O)N[C@@H](CC(C)C)C(=O)N[C@@H](CC(=O)O)C(=O)N[C@@H](C)C(=O)N[C@@H](C)C(=O)N[C@@H](CCCCN)C(=O)N[C@@H](CCC(N)=O)C(=O)N[C@H](C(=O)N[C@@H](CC(C)C)C(N)=O)[C@@H](C)CC [IDWKKLLDAAKQIL]
- MIC (Pseudomonas aeruginosa): > 60.4 µM
- MIC [6]: 8 µM (≈ 13.2 µg/mL)
- MIC [7]: 2.42 µM (≈ 4 µg/mL)
- MIC [8]: 128 µM (≈ 212 µg/mL)
- MIC [9]: 32 µM and > 16 µM
- MIC [10]: 32 µM (≈ 52.9 µg/mL)
- MIC (Escherichia coli ML-35): ≥ 32 µM
- MIC (Bacillus subtilis): 7.55 µM (≈ 12.5 µg/mL)
- MIC (Shigella dysenteriae): ≥ 45.3 µM
- MIC [11]: 64 µM (≈ 106 µg/mL)
- MIC [12]: ≥ 64 µM
- MIC [13]: ≥ 60.4 µM
- MIC (Staphylococcus aureus): 11.4 µM (≈ 18.8 µg/mL)
- MIC (Candida krusei ATCC 6258): 8 µM (≈ 13.2 µg/mL)
- MIC (Salmonella typhimurium): ≥ 60.4 µM
- MIC (Klebsiella pneumoniae): 22.7 µM (≈ 37.5 µg/mL)
- MIC (Escherichia coli): 45.3 µM (≈ 75 µg/mL)
- MIC [14]: 8 µM (≈ 13.2 µg/mL)
- MIC [15]: 8 µM and 4 µM
- MIC [16]: 4.83 µM (≈ 8 µg/mL)
- MIC [17]: 9.06 µM (≈ 15 µg/mL)
- MIC [18]: 8 µM (≈ 13.2 µg/mL)
- MIC [19]: ≥ 64 µM

Compound: CC[C@H](C)[C@H](NC(=O)[C@@H]1CCCN1C(=O)[C@@H]1CCCN1C(=O)[C@H](CCCN=C(N)N)NC(=O)[C@H](Cc1ccccc1)NC(=O)[C@@H](N)CCCN=C(N)N)C(=O)N[C@@H](CCCN=C(N)N)C(=O)N[C@@H](CCCN=C(N)N)C(=O)N1CCC[C@H]1C(=O)N1CCC[C@H]1C(=O)N[C@H](C(=O)N[C@@H](CCCN=C(N)N)C(=O)N1CCC[C@H]1C(=O)N1CCC[C@H]1C(=O)N[C@@H](Cc1ccccc1)C(=O)N[C@@H](CCCN=C(N)N)C(=O)N1CCC[C@H]1C(=O)N1CCC[C@H]1C(=O)N[C@@H](Cc1ccccc1)C(=O)N[C@@H](CCCN=C(N)N)C(=O)N1CCC[C@H]1C(=O)N1CCC[C@H]1C(=O)N[C@H](C(=O)N[C@@H](CCCN=C(N)N)C(N)=O)C(C)C)[C@@H](C)CC [RFRPPIRRPPIRPPFRPPFRPPVR]
- MIC [20]: 1.33 µM (≈ 4 µg/mL)
- MIC (Escherichia coli O157:H7): 2.66 µM and 5.42 µM
- MIC [21]: 5.32 µM and 8.65 µM
- MIC [22]: 21.3 µM (≈ 64 µg/mL)
- MIC [23]: 0.0416 µM (≈ 0.125 µg/mL)
- MIC [24]: 2.66 µM (≈ 8 µg/mL)
- MIC [25]: 0.166 µM (≈ 0.5 µg/mL)
- MIC (Escherichia coli UB1005): 0.0416 µM (≈ 0.125 µg/mL)
- MIC (Candida albicans 3153A): 5.32 µM (≈ 16 µg/mL)
- MIC [13]: 5.32 µM (≈ 16 µg/mL)
- MIC (Escherichia coli O111): 0.665 µM (≈ 2 µg/mL)
- MIC (Escherichia coli DC2): 0.0416 µM (≈ 0.125 µg/mL)
- MIC (Candida albicans 105): 10.6 µM (≈ 32 µg/mL)
- MIC [26]: 10.6 µM (≈ 32 µg/mL)
- MIC [27]: 10.6 µM (≈ 32 µg/mL)

— DBAASP
